Laboratory results as given in patent US8980906B2, “Pyridonemorphinan analogs and biological activity on opioid receptors” (Purdue Pharma L.P., priority 2012, dated 2015).

Key:
κ-opioid receptor [1] = target: T1, κ-opioid receptor (Homo sapiens (Human), UniProt P41145); assay: κ-opioid receptor [35S]GTPγS functional assay, HEK-293 or CHO cells; type: biochemical; details: for Emax: relative to U69,593, HEK-293 or CHO cells
κ-opioid receptor [2] = target: T1, κ-opioid receptor; assay: κ-opioid receptor radioligand dose-displacement binding assay ([3H]-U69,593); details: binding affinity, [3H]-U69,593 displacement
In short: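 Competition binding with 0.4 nM [3H]-U69,593 and 15 μg membrane protein from HEK 293 cells expressing recombinant human κ receptor, in 50 mM Tris pH 7.4 with 5% DMSO, 1 h at about 25 °C. Nonspecific binding defined with 10 μM naloxone or U69,593; bound ligand collected by GF/C filtration and scintillation counting.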

δ-opioid receptor = δ-opioid receptor (Homo sapiens (Human), UniProt P41143); assay: δ-opioid receptor radioligand dose-displacement binding assay ([3H]-Naltrindole); details: binding affinity, [3H]-Naltrindole displacement
Experimental: δ-Opioid Receptor Binding Assay Procedures: δ-Opioid Receptor Binding Assay Procedures were conducted as follows. Radioligand dose-displacement assays used 0.2 nM [^3H]-Naltrindole (Perkin Elmer, Shelton, Conn.; 33.0 Ci/mmole) with 5 μg membrane protein (Perkin Elmer, Shelton, Conn.) in a final volume of 500 μl binding buffer (5 mM MgCl2, 5% DMSO, 50 mM Trizma base, pH 7.4). Non-specific binding was determined in the presence of 25 μM unlabeled naloxone. All reactions were performed in 96-deep well polypropylene plates for 1 hour at a temperature of about 25° C. Binding reactions were terminated by rapid filtration onto 96-well Unifilter GF/C filter plates (Perkin Elmer, Shelton, Conn.) presoaked in 0.5% polyethylenimine (Sigma). Harvesting was performed using a 96-well tissue harvester (Perkin Elmer, Shelton, Conn.) followed by five filtration washes with 500 μl ice-cold binding buffer. Filter plates were subsequently dried at 50° C. for 1-2 hours. Fifty μl/well scintillation cocktail (Perkin Elmer, Shelton, Conn.) was added and plates were counted in a Packard Top-Count for 1 min/well.

μ-opioid receptor = μ-opioid receptor (Homo sapiens (Human), UniProt P35372); assay: μ-opioid receptor radioligand dose-displacement binding assay ([3H]-diprenorphine); details: binding affinity, [3H]-diprenorphine displacement; read-out: Ki (nM) Opioid Receptor μ
Experimental: μ-Opioid Receptor Binding Assay Procedures: Radioligand dose-displacement binding assays for μ-opioid receptors used 0.3 nM [^3H]-diprenorphine (Perkin Elmer, Shelton, Conn.), with […] membrane protein/well in a final volume of 500 μl binding buffer (10 mM MgCl2, 1 mM EDTA, 5% DMSO, 50 mM HEPES, pH 7.4). Reactions were carried out in the absence or presence of increasing concentrations of unlabeled naloxone. All reactions were conducted in 96-deep well polypropylene plates for 2 hours at room temperature. Binding reactions were terminated by rapid filtration onto 96-well Unifilter GF/C filter plates (Perkin Elmer, Shelton, Conn.), presoaked in 0.5% polyethylenimine using a 96-well tissue harvester (Perkin Elmer, Shelton, Conn.) followed by performing three filtration washes with 500 μl of ice-cold binding buffer. Filter plates were subsequently dried at 50° C. for 2-3 hours. BetaScint scintillation cocktail (Perkin Elmer, Shelton, Conn.) was added (50 μl/well), and plates were counted using a Packard Top-Count for 1 min/well. The data were analyzed using the one-site competition curve fitting functions in GraphPad PRISM™ v. 3.0 or higher (San Diego, Calif.), or an in-house function for one-site competition curve-fitting.

Sequence of δ-opioid receptor (P41143 whole entry, looked up): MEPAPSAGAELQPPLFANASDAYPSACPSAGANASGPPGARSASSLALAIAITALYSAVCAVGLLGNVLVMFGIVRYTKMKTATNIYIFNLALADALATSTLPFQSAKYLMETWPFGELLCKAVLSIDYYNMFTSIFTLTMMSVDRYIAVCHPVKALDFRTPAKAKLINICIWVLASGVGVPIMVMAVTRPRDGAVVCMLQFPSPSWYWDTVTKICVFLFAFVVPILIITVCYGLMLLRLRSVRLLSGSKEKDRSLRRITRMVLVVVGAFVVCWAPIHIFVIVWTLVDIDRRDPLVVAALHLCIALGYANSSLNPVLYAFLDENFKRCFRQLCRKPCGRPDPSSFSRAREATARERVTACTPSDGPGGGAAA

With `NC(=O)c1cc2c([nH]c1=O)C[C@]13CCN(CC4CC4)[C@H](Cc4ccc(O)cc41)[C@]3(O)C2` [Compound 5, (6R,6aS,12aR)-15-(cyclopropylmethyl)-2,6a-dihydroxy-10-oxo-6,6a,7,10,11,12-hexahydro-5H-6,12a-(epiminoethano)naphtho[2,1-g]quinoline-9-carboxamide] the EC50 (κ-opioid receptor [1]) was 4.37 ± 1.11 nM, the Emax (κ-opioid receptor [1]) was 10.2 ± 1.18% and the Ki (κ-opioid receptor [2]) was 0.58 ± 0.15 nM. The Ki (δ-opioid receptor) was 26.4 ± 7.23 nM and the Ki (μ-opioid receptor) was 6.55 ± 2.06 nM.

Compound `O=C(O)c1cc2c([nH]c1=O)C[C@]13CCN(CC4CC4)[C@H](Cc4ccc(O)cc41)[C@]3(O)C2` [Compound 9, (6R,6aS,12aR)-15-(cyclopropylmethyl)-2,6a-dihydroxy-10-oxo-6,6a,7,10,11,12-hexahydro-5H-6,12a-(epiminoethano)naphtho[2,1-g]quinoline-9-carboxylic acid] has an EC50 (κ-opioid receptor [1]) of over 20000 nM, an Emax (κ-opioid receptor [1]) of 2.33 ± 1.33% and a Ki (κ-opioid receptor [2]) of 1.52 ± 0.18 nM. For the same compound, the Ki (δ-opioid receptor) was 18.5 ± 2.14 nM and the Ki (μ-opioid receptor) was 3.11 ± 0.9 nM.

`O=C(O)c1cc2c([nH]c1=O)C[C@]13CCN(CC4CC4)[C@H](Cc4ccc(O)cc41)[C@@H]3C2` [Compound 11, (6R,6aR,12aS)-15-(cyclopropylmethyl)-2-hydroxy-10-oxo-6,6a,7,10,11,12-hexahydro-5H-6,12a-(epiminoethano)naphtho[2,1-g]quinoline-9-carboxylic acid] gave an EC50 (κ-opioid receptor [1]) of 1.4 ± 0.56 nM, an Emax (κ-opioid receptor [1]) of 19 ± 1.53% and a Ki (κ-opioid receptor [2]) of 18.5 ± 7.73 nM. For the same compound, the Ki (μ-opioid receptor) was 0.52 ± 0.12 nM.
